Measured values as given in patent publication US20130079370A1, “Method for the Inhibition of Deubiquitinating Activity” (priority 2011, published 2013).

Assays:
[1] = tested on: HCT116 cells; format: cell-based; conditions: human
Source text: These findings indicate that high molecular weight ubiquitin substrate complexes accumulating as a result of DUB inhibition can generate strong cytotoxicity that is insensitive to Bcl-2 over-expression. [table]

[2] = tested on: isogenic clones of HCT116 colon cancer cells; conditions: literature refs (11, 12); cited from earlier work

CC(C)C[C@H](NC(=O)[C@H](Cc1ccccc1)NC(=O)c1cnccn1)B(O)O [bortezomib, reference compound]
Fold induction DNAJB1 (Hsp40B1) [1]: 5 fold | Fold induction HSPA1B [1]: 12 fold | Fold induction HSPA6 (Hsp70B′) [1]: 60 fold | sensitivity of apoptosis induction to apoptosis regulators [2]: sensitive to the status of the p53 tumor suppressor and over-expression of the anti-apoptotic Bcl-2 oncoprotein
